One experiment concerns dog platelets. Kind of experiment: Binding assay: inhibition of 3H-PAF binding to dog platelets. The settings on record: 10 minutes at room temperature. On the procedure: The binding assay was done in 400 μl polyethylene microcentrifuge tubes (Beckman) containing 50 μl of an oil mixture of 2 parts Siliconol AR200 (Serva): 1 part Silicone Fluid (Arthur H. Thomas). Buffer, standards, or analogs (150 μl total volume) were added to the tubes. Radiolabelled ^3 H-PAF (50 μl) was then added to the tubes. The reaction was started by the addition of 50 μl of dog platelets (2×10^7 platelets). The tubes were capped, inverted several times to mix, and incubated for 10 minutes at room temperature. The platelets were separated from the incubation mixture by centrifuging 1 minute in a Beckman Microfuge B centrifuge. The tip of the microfuge tube was cut off, and the platelets were washed out of the tip with 200 μl of 50% methanol (Burdick and Jackson). Aquasol (NEN, 10 ml) was added and the radioactivity in the samples was determined using an LS 8100 Beckman liquid scintillation counter linked to a Techtran tape recorder. Data was processed through an in-house computer system. Alternatively, radioactivity was determined using a Searle Mark III liquid scintillation counter linked to a Iso-Data microprocessor.
(b) Preparation of Platelets
Blood was collected from anesthesized or unanesthesized dogs into 50 ml plastic centrifuge tubes containing 3.8% sodium citrate as the anticoagulant (1 volume of citrate/9 volumes of blood). The red cells were removed by centrifugation for 15 minutes at 600 rpm (100-125 g) at room temperature. An aliquot of the supernatant platelet rich plasma (PRP) was saved for cell counting and the remainder was acidified by pH 6.5 with 0.15M citric acid. The platelet pellet was obtained after a 10 minute centrifugation at 2000 rpm (1000 g) at room temperature. Washed platelets were prepared by resuspending the platelet pellet once with PBS containing 1 mM EDTA, centrifuging as noted, and then resuspending the platelets in 0.1% BSA-PBS. An aliquot of the washed platelets was counted. Platelets used for binding assays were diluted to 2×10^7 platelets/assay tube (4×10^8 platelets/ml). Platelet counting was done using a Royco Cell-Crit 921.

The subject of experiment [1] is PAF-induced Bronchoconstriction. The experiment is described as follows: PAF Induced Bronchoconstriction Assay. It counts as in vivo. The settings on record: guinea pig, ± standard error of the mean; for Percent Inhib. of PAF-induced Bronchoconstriction, 1 mg/Kg i.v.: 1 minute pretreatment, PAF 1.0 μg/kg i.v.; for Percent Inhib. of PAF-induced Bronchoconstriction, 50 mg/Kg p.o.: 2-hour pretreatment, PAF i.v. On the procedure:
PAF Induced Bronchoconstriction Assay
Male animals (Hartlet Strain, 400-500 g) were anesthetized with urethane (2 g/kg, i.p.). Each animals' trachea was cannulated and the guinea pigs were respirated using a Harvard small animal rodent respirator (3.0 cc stroke volume, 40 breaths per min.). Tracheal pressure was recorded from a cannula inserted in the trachea and connected to a Statham Pressure Transducer.
The jugular vein was cannulated for administering compounds. Spontaneous breathing was arrested with succinylcholine (1.2 mg/kg, i.v.) administered 2 minutes prior to intravenous injection of platelet activating factor (PAF).
For, the intravenous testing, the guinea pig is given a 5-minute pretreatment with propranolol at a dose of 0.1 mg/kg intravenously. The test compound is administered with a 1 minute pretreatment prior to intravenous challenge with PAF. The animal is then challenged with a 1.0 μg/kg intravenous dose of PAF and the change is tracheal pressure is measured.
For the oral testing, the procedure includes a 2-hour pretreatment period with the test compound administered through an oral gavage tube. Propranolol or succinylcholine and PAF are administered intravenously, and the change in tracheal pressure measured.
The change is tracheal pressure is determined by subtracting the steady state baseline achieved after administration of succinylcholine from the peak bronchoconstriction seen after challenge with PAF. The mean is calculated for each test compound and compared to the mean of the control animals to give the percent inhibition of bronchoconstriction. The standard error is calculated as the standard error of the mean.

The IC50 is the concentration that gives 50% inhibition. Low values mean greater potency, high ones weaker potency. As to `O=C(CCC1CC1(c1ccccc1)c1ccccc1)NCCCCc1cccnc1` (racemic) [(R,S)-2,2-Diphenyl-N-[4-(3-pyridinyl)butyl]cyclopropanepropanamide], the IC50 in the experiment on dog platelets amounted to 300 nM.

For the compound `S=C(/C=C/C1CC1(c1ccccc1)c1ccccc1)NCCCCc1cccnc1` (racemic) [(R,S)-(E)-3-(Diphenylcyclopropyl)-N-[4-(3-pyridinyl)butyl]-2-propenethioamide], the IC50 with dog platelets worked out at 55 nM. Compared with the last compound, the IC50 is about 5.5-fold lower.

Regarding `O=C(/C=C/C1CC1(c1ccccc1)c1ccccc1)NCCCCc1cccnc1` (racemic) [[R,S-(E)]-3-(2,2-Diphenylcyclopropyl)-N-[4-(3-pyridinyl)butyl]-2-propenamide], the IC50 in the experiment on dog platelets is 150 nM. Besides, in experiment [1], the “Percent Inhib. of PAF-induced Bronchoconstriction, 1 mg/Kg i.v.” value was 48 ± 16%.

`COc1cccc(C2(c3cccc(OC)c3)CC2/C=C/C(=O)NCCCCc2cccnc2)c1` (racemic) [[R,S-(E)]-3-[2,2-bis(3-Methoxyphenyl)cyclopropyl]-N-[4-(3-pyridinyl)butyl]-2-propenamide]: in the experiment on dog platelets, the IC50 came to 70 nM. Besides, the “Percent Inhib. of PAF-induced Bronchoconstriction, 50 mg/Kg p.o.” value in experiment [1] was 14 ± 1%.

In the experiment on dog platelets, `CC1(/C=C/C(=O)NCCCCc2cccnc2)CC1(c1ccc(F)cc1)c1ccc(F)cc1` (racemic) [[R,S-(E)]-3-[2,2-bis(4-Fluorophenyl)-1-methylcyclopropyl]-N-[4-(3-pyridinyl)butyl]-2-propenamide] displayed an IC50 of 300 nM.

Regarding `O=C(/C=C/C1CC1(c1ccc(F)cc1)c1ccc(F)cc1)NCCCCc1cccnc1` (racemic) [[R,S-(E)]-3-[2,2-bis(4-Fluorophenyl)cyclopropyl]-N-[4-(3-pyridinyl)butyl]-2-propenamide], the concentration for half-maximal inhibition (IC50) in the experiment on dog platelets came to 100 nM. Further, in experiment [1], the “Percent Inhib. of PAF-induced Bronchoconstriction, 1 mg/Kg i.v.” value is given as 20 ± 8% and the “Percent Inhib. of PAF-induced Bronchoconstriction, 50 mg/Kg p.o.” value is given as 82 ± 5%.

In the case of `O=C(/C=C/C1CC1(c1cccc(C(F)(F)F)c1)c1cccc(C(F)(F)F)c1)NCCCCc1cccnc1` (racemic) [[R,S-(E)]-3-[2,2-bis[3-(trifluoromethyl)phenyl]cyclopropyl]-N-[4-(3-pyridinyl)butyl]-2-propenamide], the IC50 in the experiment with dog platelets was determined as 350 nM.

Take `O=C(/C=C\C1CC1(c1ccccc1)c1ccccc1)NCCCCc1cccnc1` (racemic) [[R,S-(Z)]-3-(2,2-Diphenylcyclopropyl)-N-[4-(3-pyridinyl)butyl]-2-propenamide]: in the experiment on dog platelets, the IC50 is 650 nM.

In the experiment with dog platelets, `O=C(/C=C\C1CC1(c1ccc(F)cc1)c1ccc(F)cc1)NCCCCc1cccnc1` (racemic) [[R,S-(Z)]-3-[2,2-bis(4-Fluorophenyl)cyclopropyl]-N-[4-[3-pyridinyl)butyl]-2-propenamide] registered an IC50 of 1000 nM. The “Percent Inhib. of PAF-induced Bronchoconstriction, 50 mg/Kg p.o.” value in experiment [1] was found to be 78 ± 11%.

`COc1cccc([C@]2(c3ccccc3)C[C@@H]2/C=C/C(=O)NCCCCc2cccnc2)c1` (relative stereo) [[1(R,S),2(R,S)-(E)]-3-[[2-(3-Methoxyphenyl)-2-phenyl]cyclopropyl]-N-[4-(3-pyridinyl)butyl]-2-propenamide] returned an IC50 with dog platelets of 8 nM. This counts as single-digit nanomolar.

In the experiment on dog platelets, `COc1cccc([C@]2(c3ccccc3)C[C@@H]2/C=C\C(=O)NCCCCc2cccnc2)c1` (relative stereo) [[1(R,S),2(R,S)-(Z)]-3-[[2-(3-Methoxyphenyl)-2-phenyl]cyclopropyl]-N-[4-(3-pyridinyl)butyl]-2-propenamide] returned an IC50 of 300 nM. Further, in experiment [1], the “Percent Inhib. of PAF-induced Bronchoconstriction, 50 mg/Kg p.o.” value stood at 9 ± 14%.

Turning to `COc1cccc([C@@]2(c3ccccc3)C[C@@H]2/C=C/C(=O)NCCCCc2cccnc2)c1` (relative stereo) [[1(R,S),2(S,R)-(E)]-3-[[2-(3-Methoxyphenyl)-2-phenyl]cyclopropyl]-N-[4-(3-pyridinyl)butyl]-2-propenamide], the IC50 in the experiment on dog platelets was determined as 35 nM.

`COc1cccc([C@@]2(c3ccccc3)C[C@@H]2/C=C\C(=O)NCCCCc2cccnc2)c1` (relative stereo) [[1(R,S),2(S,R)-(Z)]-3-[[2-(3-Methoxyphenyl)-2-phenyl]cyclopropyl]-N-[4-(3-pyridinyl)butyl]-2-propenamide] came in with a half-inhibitory concentration (IC50) in the experiment on dog platelets of 250 nM. Also, the “Percent Inhib. of PAF-induced Bronchoconstriction, 50 mg/Kg p.o.” value in experiment [1] worked out at 15 ± 12%.

Take `C[C@H](CCCc1cccnc1)NC(=O)/C=C/[C@@H]1CC1(c1cccc(F)c1)c1cccc(F)c1` (relative stereo) [[S,R*-(E)]-3-[2,2-bis(3-Fluorophenyl)cyclopropyl]-N-[1-methyl-4-(3-pyridinyl)butyl]-2-propenamide]: the IC50 with dog platelets stood at 130 nM.

Regarding `C[C@H](CCCc1cccnc1)NC(=O)/C=C/[C@@H]1CC1(c1ccc(F)cc1)c1ccc(F)cc1` (relative stereo) [[S,R*-(E)]-3-[2,2-bis(4-Fluorophenyl)cyclopropyl]-N-[1-methyl-4-(3-pyridinyl)butyl]-2-propenamide], the IC50 in the experiment on dog platelets stood at 450 nM. Against the preceding compound, the IC50 is about 3.5-fold higher.

For the compound `COc1cccc(C2(c3cccc(OC)c3)CC2/C=C/C(=O)NC(C)CCCc2cccnc2)c1` (stereo in doubt) [(S,R*)-(E)-3-[2,2-bis(3-Methoxyphenyl)cyclopropyl]-N-[1-methyl-4-(3-pyridinyl)butyl]-2-propenamide], in the experiment on dog platelets, the IC50 was determined as 450 nM. This lies in the sub-micromolar range.

As to `O=C(CC[C@@H]1CC1(c1ccccc1)c1ccccc1)NCCCCc1cccnc1` [(R)-2,2-Diphenyl-N-[4-(3-pyridinyl)butyl]cyclopropanepropanamide], the IC50 in the experiment with dog platelets was 600 nM. This IC50 and that of the compound before are within 1.5-fold of each other.

In the experiment with dog platelets, `O=C(CC[C@H]1CC1(c1ccccc1)c1ccccc1)NCCCCc1cccnc1` [(S)-2,2-Diphenyl-N-[4-(3-pyridinyl)butyl]cyclopropanepropanamide] returned an IC50 of 200 nM.

Regarding `O=C(/C=C/[C@H]1CC1(c1ccccc1)c1ccccc1)NCCCCc1cccnc1` [[R-(E)]-3-(2,2-Diphenylcyclopropyl)-N-[4-(3-pyridinyl)butyl]-2-propenamide], the IC50 with dog platelets was 250 nM. In addition, in experiment [1], the “Percent Inhib. of PAF-induced Bronchoconstriction, 1 mg/Kg i.v.” value came out at 71 ± 12% and the “Percent Inhib. of PAF-induced Bronchoconstriction, 50 mg/Kg p.o.” value is recorded as 57 ± 19%.

For `O=C(/C=C/[C@H]1CC1(c1cccc(F)c1)c1cccc(F)c1)NCCCCc1cccnc1` [[R-(E)]-3-[2,2-bis(3-Fluorophenyl)cyclopropyl]-N-[4-(3-pyridinyl)butyl]-2-propenamide], in the experiment on dog platelets, the 50% inhibitory concentration (IC50) was determined as 200 nM. In experiment [1], the “Percent Inhib. of PAF-induced Bronchoconstriction, 1 mg/Kg i.v.” value worked out at 29 ± 3% and the “Percent Inhib. of PAF-induced Bronchoconstriction, 50 mg/Kg p.o.” value is reported as 10 ± 13%.

As for `COc1cccc(C2(c3cccc(OC)c3)C[C@@H]2/C=C/C(=O)NCCCCc2cccnc2)c1` [[R-(E)]-3-[2,2-bis(3-Methoxyphenyl)cyclopropyl]-N-[4-(3-pyridinyl)butyl]-2-propenamide], in the experiment on dog platelets, the IC50 came out at 300 nM. In addition, in experiment [1], the “Percent Inhib. of PAF-induced Bronchoconstriction, 1 mg/Kg i.v.” value is on record as 8 ± 5% and the “Percent Inhib. of PAF-induced Bronchoconstriction, 50 mg/Kg p.o.” value is on record as 8 ± 2%.

`C[C@]1(/C=C/C(=O)NCCCCc2cccnc2)CC1(c1ccc(F)cc1)c1ccc(F)cc1` [[R-(E)]-3-[2,2-bis(4-fluorophenyl)-1-methylcyclopropyl]-N-[4-(3-pyridinyl)butyl]-2-propenamide]: in the experiment on dog platelets, the IC50 was 500 nM.

For the compound `O=C(/C=C\[C@H]1CC1(c1ccccc1)c1ccccc1)NCCCCc1cccnc1` [[R-(Z)]-3-(2,2-Diphenylcyclopropyl)-N-[4-(3-pyridinyl)butyl]-2-propenamide], in the experiment on dog platelets, the IC50 was 100 nM.

On to `C[C@@]1(/C=C/C(=O)NCCCCc2cccnc2)CC1(c1ccc(F)cc1)c1ccc(F)cc1` [[S-(E)]-3-[2,2-bis(4-Fluorophenyl)-1-methylcyclopropyl]-N-[4-(3-pyridinyl)butyl]-2-propenamide], for which the 50% inhibitory concentration (IC50) with dog platelets stood at 200 nM.

Consider `O=C(/C=C\[C@@H]1CC1(c1ccccc1)c1ccccc1)NCCCCc1cccnc1` [[S-(Z)]-3-(2,2-Diphenylcyclopropyl)-N-[4-(3-pyridinyl)butyl]-2-propenamide], for which the IC50 in the experiment with dog platelets stood at 1000 nM.

Source of the values: US4927826A, “Cycloproylpropenamides useful as platelet activing factor (PAF) antagonists” (Hoffman-La Roche Inc., priority 1988, dated 1990).
